The values below come from patent publication US4435393A, “Derivatives of 10-(1-azabicyclo[2.2.2]oct-3-yl)-N,N dimethyl-10H-phenothiazine-2-sulfonamide as medicaments” (Pharmindustrie, priority 1981, dated 1984).

Where two headings read alike, the source gives them in different places.

The assay concerns gastric hypersecretion stimulated by pentagastrine. Put plainly: antisecretory activity on gastric hypersecretion stimulated by pentagastrine in dogs wearing a Heidenhain pouch. Type of assay: in vivo, dog (mongrel). The following applies: for ED50: Canis lupus familiaris, read-out: ED 50 (dose which reduced by 50% the hourly acid flow). Here is the method:
Three mongrel dogs wearing Heidenhain pouches and which were kept without food for 18 hours received a venous perfusion of […] of pentagastrine per hour in a volume of 30 mls per hour for 4 hours. The secretion from the pouch was collected in a flask which was changed every 15 minutes. An hour and a half after the beginning of the perfusion process, the product to be examined was administered orally in a No. 000 gelatin coated pill. […] The doses are expressed in the product in the base form.

Setting [1] is: oral, Heidenhain pouch dogs, pentagastrine perfusion, acid flow at 3rd or 4th hour vs second hour, doses expressed as base.

Consider `CN(C)S(=O)(=O)c1ccc2c(c1)N(C1CN3CCC1CC3)c1ccccc1[S+]2[O-]` (stereo not drawn) [Example 1, 10-(1-azabicyclo[2.2.2]oct-3-yl)-N,N dimethyl-10H-phenothiaxine-2-sulfonamide S-oxide], for which the ED50 under setting [1] was found to be 2.3 mg/kg. Further, the “inhibition of gastric secretion relative to Cimetidine” value (oral, Heidenhain pouch dogs) was “as active as Cimetidine”.

As to `CN(C)S(=O)(=O)c1ccc2c(c1)N(C1CN3CCC1CC3)c1ccccc1S2(=O)=O` (stereo not drawn) [Example 3, 10-(1-azabicyclo[2.2.2]oct-3-yl)-N,N dimethyl-10H-phenothiazine-2 sulfonamide S-dioxide], the ED50 under setting [1] was determined as 10 mg/kg.

Consider `CN/C(=N/CCSCc1nc[nH]c1C)NC#N` [Cimetidine, reference compound], for which, for the setting “po”, the ED50 turned out to be 2.3 mg/kg. As to `CN(C)S(=O)(=O)c1ccc2c(c1)N(C1CN3CCC1CC3)c1ccccc1[S+]2[O-]` (single isomer, unassigned) [Example 2, 10-(1-azabicyclo[2.2.2]oct-3-yl)-N,N dimethyl-10H-phenothiazine-2-sulfonamide S-oxide], under setting [1], the ED50 came to 2.5 mg/kg. Further, the “inhibition of gastric secretion relative to Cimetidine” value (oral, Heidenhain pouch dogs) is “as active as Cimetidine”.
